Experimental data published in patent US10328060B2, “Certain protein kinase inhibitors” (Shanghai Fochon Pharmaceutical Co., Ltd., priority 2014, dated 2019).

Legend:
SU-DHL-6 cell = SU-DHL-6 cell proliferation assay (MTS); format: cell-based; details: SU-DHL-6 cells, 48 h
Experimental: To investigate whether a compound is able to inhibit the activity of PI3K in cells, a mechanism-based assay using SU-DHL-6 cell (ATCC number: CRL 2959) was developed. In this assay, inhibition of PI3K-6 was detected by the inhibition of SUDHL-6 cells proliferation. SU-DHL-6 cells were cultured in culture flasks to 40-80% confluence in RPMI-1640 plus 10% fetal bovine serum. Cells were collected and plated onto 96-well-plates at 30000/well. Plates were incubated overnight at 37° C., with 5% CO2 to adhere. Compounds were added to the plates. Final compound concentrations were […], 123.5, 41.2, 13.7, 4.6 and 1.5 nM. Place plates at 37° C., with 5% CO2 for 48 h. After removing the medium, 20 μl MTS/100 μl medium mixture solution were added to each well and incubate the plates for exactly 2 hours. Stop the reaction by adding 25 μl 10% SDS per well. Measure absorbance at 490 nm and 650 nm (reference wavelength). IC50 was calculated using GraphPad Prism 5.0.

WSU-NHL = WSU-NHL cell viability assay (CellTiter-Glo); format: cell-based; details: WSU-NHL cells, 48 h
Experimental: The cancer cell line WSU-NHL (DSMZ number: ACC 58) was maintained in RPMI-1640 medium with 10% FBS, at 37° C. in an atmosphere of 5% CO2. The tumor cells were routinely sub-cultured twice weekly by trypsin-EDTA treatment. The cells growing in an exponential growth phase were harvested, counted, and planted in 96-well plated by 5000 cells/well. After 24 hours' culture, the series diluted test articles were added into wells, then return the assay plate into the incubator and continue culture for 48 h. At the ending point of incubation, the assay plates were detected by Promega CellTiter-Glo Luminescent Cell Viability Assay Kit (Promege 7572), and the luminescence record of each well was read by the 2104 EnVision plate reader. The data were interpreted by GraphPad Prism5 software.

`O=c1c(-c2ccccc2)c(C(Nc2ncnc3[nH]cnc23)C2CC2)cc2scc(Cl)n12` (centres unmarked) [Example 21, 7-(((9H-purin-6-yl)amino)(cyclopropyl)-methyl)-3-chloro-6-phenyl-5H-thiazolo-[3,2-a]pyridin-5-one] gave an IC50 (SU-DHL-6 cell; Homo sapiens) of 27 nM and an IC50 (WSU-NHL; Homo sapiens) of 20 nM.

For `Cc1csc2cc(C(Nc3ncnc4[nH]cnc34)C3CC3)c(-c3cccc(F)c3)c(=O)n12` (centres unmarked) [Example 25, 7-(((9H-purin-6-yl)amino)(cyclopropyl)methyl)-6-(3-fluorophenyl)-3-methyl-5H-thiazolo[3,2-a]pyridin-5-one], the IC50 (SU-DHL-6 cell; Homo sapiens) was 3.6 nM and the IC50 (WSU-NHL; Homo sapiens) was 47 nM.

With `CCC(Nc1ncnc2[nH]cnc12)c1cc2scc(C)n2c(=O)c1-c1ccc(F)cc1` (centres unmarked) [Example 6, 7-(1-((9H-purin-6-yl)amino)propyl)-6-(4-fluorophenyl)-3-methyl-5H-thiazolo[3,2-a]pyridin-5-one] the IC50 (SU-DHL-6 cell; Homo sapiens) was 60 nM.

Compound `Cc1nc(N)nc(NC(C)c2cc3scc(Cl)n3c(=O)c2-c2cccc(F)c2)c1C#N` (centres unmarked) [Example 27, 2-amino-4-((1-(3-chloro-6-(3-fluorophenyl)-5-oxo-5H-thiazolo[3,2-a]pyridin-7-yl)ethyl)amino)-6-methylpyrimidine-5-carbonitrile] has an IC50 (WSU-NHL; Homo sapiens) of less than 9 nM.

For `Cc1csc2cc(C(C)Nc3ncnc4[nH]cnc34)c(-c3ccccc3F)c(=O)n12` (centres unmarked) [Example 7, 7-(1-((9H-purin-6-yl)amino)ethyl)-6-(2-fluorophenyl)-3-methyl-5H-thiazolo[3,2-a]pyridin-5-one], the IC50 (SU-DHL-6 cell; Homo sapiens) was 13 nM.

In the case of `CCC(Nc1ncnc2[nH]cnc12)c1cc2scc(Cl)n2c(=O)c1-c1ccccc1` (centres unmarked) [Example 15, 7-(1-((9H-purin-6-yl)amino)propyl)-3-chloro-6-phenyl-5H-thiazolol[3,2-a]-pyridin-5-one], the IC50 (SU-DHL-6 cell; Homo sapiens) is reported as 44.8 nM.

Compound `O=c1c(-c2cccc(F)c2)c(C(Nc2ncnc3[nH]cnc23)C2CC2)cc2scc(C(F)(F)F)n12` (centres unmarked) [Example 22, 7-(((9H-purin-6-yl)amino)(cyclopropyl)-methyl)-6-(3-fluorophenyl)-3-(trifluoromethyl)-5H-thiazolo[3,2-a]-pyridin-5-one] has an IC50 (SU-DHL-6 cell; Homo sapiens) of 186 nM.

Work on `O=c1c(-c2cccc(F)c2)c(C(Nc2ncnc3[nH]cnc23)C2CC2)cc2scc(Cl)n12` (centres unmarked) [Example 20, 7-(((9H-purin-6-yl)amino)(cyclopropyl)methyl)-3-chloro-6-(3-fluorophenyl)-5H-thiazolo[3,2-a]pyridin-5-one] yielded an IC50 (SU-DHL-6 cell; Homo sapiens) of 7.8 nM and an IC50 (WSU-NHL; Homo sapiens) of 39 nM.

Work on `O=c1c(-c2ccccc2)c(C(Nc2ncnc3[nH]cnc23)C2CC2)cc2scc(C(F)(F)F)n12` (centres unmarked) [Example 23, 7-(((9H-purin-6-yl)amino)(cyclopropyl)-methyl)-6-phenyl-3-(trifluoromethyl)-5H-thiazolo[3,2-a]pyridin-5-one] yielded an IC50 (SU-DHL-6 cell; Homo sapiens) of 27 nM.

`CCc1csc2cc(C(C)Nc3ncnc4[nH]cnc34)c(-c3ccccc3)c(=O)n12` (centres unmarked) [Example 9, 7-(1((9H-purin-6-yl)amino)ethyl)-3-ethyl-6-phenyl-5H-thiazolo[3,2-a]-pyridin-5-one] showed an IC50 (SU-DHL-6 cell; Homo sapiens) of 103 nM.

With `CC(Nc1ncnc2[nH]cnc12)c1cc2scc(C(F)(F)F)n2c(=O)c1-c1cccc(F)c1` (centres unmarked) [Example 16, 7-(1-((9H-purin-6-yl)amino)ethyl)-6-(3-fluorophenyl)-3-(trifluoromethyl)-5H-thiazolo[3,2-a]pyridin-5-one] the IC50 (SU-DHL-6 cell; Homo sapiens) was 4.4 nM and the IC50 (WSU-NHL; Homo sapiens) was 87 nM.

With `Cc1csc2cc(C(C)Nc3ncnc4[nH]cnc34)c(-c3ccccc3)c(=O)n12` (centres unmarked) [Example 1, 7-(1-(9H-purin-6-ylamino)ethyl)-3-methyl-6-phenyl-5H-thiazolo[3,2-a]pyridin-5-one] the IC50 (SU-DHL-6 cell; Homo sapiens) was 36 nM.

Compound `Cc1csc2cc(C(Nc3ncnc4[nH]cnc34)C3CC3)c(-c3ccccc3)c(=O)n12` (centres unmarked) [Example 24, 7-(((9H-purin-6-yl)amino)(cyclopropyl)methyl)-3-methyl-6-phenyl-5H-thiazolo[3,2-a]pyridin-5-one] has an IC50 (SU-DHL-6 cell; Homo sapiens) of 5.7 nM and an IC50 (WSU-NHL; Homo sapiens) of 16 nM.

`CC(Nc1ncnc2[nH]cnc12)c1cc2scc(Cl)n2c(=O)c1-c1cccc(F)c1` (centres unmarked) [Example 12, 7-(1-((9H-purin-6-yl)amino)ethyl)-3-chloro-6-(3-fluorophenyl)-5H-thiazolo[3,2-a]pyridin-5-one] was tested, and the IC50 (SU-DHL-6 cell; Homo sapiens) was 2.7 nM and the IC50 (WSU-NHL; Homo sapiens) was 24 nM.

For `Cc1csc2cc(C(C)Nc3ncnc4[nH]cnc34)c(-c3ccc(F)cc3)c(=O)n12` (centres unmarked) [Example 5, 7-(1-((9H-purin-6-yl)amino)ethyl)-6-(4-fluorophenyl)-3-methyl-5H-thiazolo[3,2-a]pyridin-5-one], the IC50 (SU-DHL-6 cell; Homo sapiens) was 72 nM.

`Cc1nc(N)nc(NC(C)c2cc3scc(C)n3c(=O)c2-c2ccccc2)c1C#N` (centres unmarked) [Example 26, 2-amino-4-methyl-6-((1-(3-methyl-5-oxo-6-phenyl-5H-thiazolo[3,2-a]pyridin-7-yl)ethyl)amino)pyrimidine-5-carbonitrile] was tested, and the IC50 (WSU-NHL; Homo sapiens) was less than 9 nM.

With `CCC(Nc1ncnc2[nH]cnc12)c1cc2scc(C(F)(F)F)n2c(=O)c1-c1cccc(F)c1` (centres unmarked) [Example 17, 7-(1-((9H-purin-6-yl)amino)propyl)-6-(3-fluorophenyl)-3-(trifluoromethyl)-5H-thiazolo[3,2-a]pyridin-5-one] the IC50 (SU-DHL-6 cell; Homo sapiens) was 85 nM.

`CCC(Nc1ncnc2[nH]cnc12)c1cc2scc(C)n2c(=O)c1-c1ccccc1F` (stereo not drawn) [Example 10, 7-(l-((9H-purin-6-yl)amino)propyl)-6-(2-fluorophenyl)-3-methyl-5H-thiazolo[3,2-a]pyridin-5-one] gave an IC50 (SU-DHL-6 cell; Homo sapiens) of 28 nM.

Work on `CCC(Nc1ncnc2[nH]cnc12)c1cc2scc(C)n2c(=O)c1-c1cccc(F)c1` (centres unmarked) [Example 11, 7-(1((9H-purin-6-yl)amino)propyl)-6-(3-fluorophenyl)-3-methyl-5H-thiazolo[3,2-a]pyridin-5-one] yielded an IC50 (SU-DHL-6 cell; Homo sapiens) of 12 nM.

Work on `CCC(Nc1ncnc2[nH]cnc12)c1cc2scc(Cl)n2c(=O)c1-c1cccc(F)c1` (centres unmarked) [Example 13, 7-(1-((9H-purin-6-yl)amino)propyl)-3-chloro-6-(3-fluorophenyl)-5H-thiazolo[3,2-a]pyridin-5-one] yielded an IC50 (SU-DHL-6 cell; Homo sapiens) of 7.5 nM and an IC50 (WSU-NHL; Homo sapiens) of 36 nM.

`Cc1csc2cc(C(C)Nc3ncnc4[nH]cnc34)c(-c3cccc(F)c3)c(=O)n12` (centres unmarked) [Example 8, 7-(1-((9H-purin-6-yl)amino)ethyl)-6-(3-fluorophenyl)-3-methyl-5H-thiazolo[3,2-a]pyridin-5-one] showed an IC50 (SU-DHL-6 cell; Homo sapiens) of 7.2 nM.

`CC(Nc1ncnc2[nH]cnc12)c1cc2scc(Cl)n2c(=O)c1-c1ccccc1` (centres unmarked) [Example 14, 7-(1-((9H-purin-6-yl)amino)ethyl)-3-chloro-6-phenyl-5H-thiazolo[3,2-a]-pyridin-5-one] was tested, and the IC50 (SU-DHL-6 cell; Homo sapiens) was 8.5 nM and the IC50 (WSU-NHL; Homo sapiens) was 49 nM.

`CC(Nc1ncnc2[nH]cnc12)c1cc2ccccn2c(=O)c1-c1ccccc1` (centres unmarked) [Example 3, 2-(1-(9H-purin-6-ylamino)ethyl)-3-phenyl-4H-quinolizin-4-one] gave an IC50 (SU-DHL-6 cell; Homo sapiens) of 713 nM.

`CCC(Nc1ncnc2[nH]cnc12)c1cc2scc(C)n2c(=O)c1-c1ccccc1` (centres unmarked) [Example 2, 7-(1-(9H-purin-6-ylamino)propyl)-3-methyl-6-phenyl-5H-thiazolo[3,2-a]pyridin-5-one] showed an IC50 (SU-DHL-6 cell; Homo sapiens) of 60 nM.

For `CC(Nc1ncnc2[nH]cnc12)c1cc2scc(C(F)(F)F)n2c(=O)c1-c1ccccc1` (centres unmarked) [Example 18, 7-(1-((9H-purin-6-yl)amino)ethyl)-6-phenyl-3-(trifluoromethyl)-5H-thiazol-[3,2-a]pyridin-5-one], the IC50 (SU-DHL-6 cell) was 23 nM and the IC50 (WSU-NHL) was 95 nM.

`CCC(Nc1ncnc2[nH]cnc12)c1cc2scc(C(F)(F)F)n2c(=O)c1-c1ccccc1` (centres unmarked) [Example 19] gave an IC50 (SU-DHL-6 cell; Homo sapiens) of 17 nM.
